System: mRNA expression in cardiovascular tissues
Assay: Affymetrix GeneChip mRNA expression profiling of monkey tissues (iliac vein, pulmonary vein, aorta, carotid artery, heart) after two-week oral-gavage treatment
Settings: iliac vein
[1] = group average (Vioxx without A60055)
[2] = group avg, Vioxx without A60055

Description: Administration of compounds. A two-week oral-gavage treatment with the Cox-2 specific inhibitor COX189 (Lumiracoxib®, Novartis) in comparison with rofecoxib (Vioxx®, Merck), and celecoxib (Celebrex®, Pharmacia/Pfizer), and with the nonselective NSAID, diclofenac (Voltaren®, Novartis) was performed. […] The test items were administered daily at doses of 100 mg/kg/day, except Vioxx® which was administered at 50 mg/kg/day.
Gene expression profiles. After a period of time (e.g., four weeks) of compound/drug administration, the treated animals are necropsied. 120 tissues are dissected and rapidly snap-frozen for genomics analysis. Organ samples are isolated for histopathological examinations and for gene expression localizations, such as by in situ hybridization.
Gene expression profiles have been generated using the Affymetrix microarray technology. (i) RNA extraction and purification: Briefly, total RNA was obtained by acid guanidinium thiocyanate-phenol-chloroform extraction (Trizol®, Invitrogen Life Technologies, San Diego, Calif.) from each frozen tissue section and the total RNA was then purified on an affinity resin (Rneasy®, Qiagen) according to the manufacturer's instructions. Total RNA was quantified by the absorbance at λ=260 nm (A260 nm) and the purity was estimated by the ratio A260 nm/A280 nm. Integrity of the RNA molecules was confirmed by non-denaturing agarose gel electrophoresis. RNA was stored at −80° C. until analysis. […] (ii) GeneChip® experiment: All GeneChip® experiments were conducted in the Genomics Factory EU following recommendations by the manufacturer of the GeneChip® system (Affymetrix, Expression Analysis Technical Manual (Affymetrix, Santa Clara, Calif., 2005). Human U133A genome arrays were used for transcript expression analysis. Double stranded cDNA was synthesized with a starting amount of approximately 5 μg full-length total RNA using the Superscript Choice System (Invitrogen Life Technologies) in the presence of a T7-(dT) 24 DNA oligonucleotide primer. Following synthesis, the cDNA was purified by phenol/chloroform/isoamyl alcohol extraction and ethanol precipitation. The purified cDNA was then transcribed in vitro using the BioArray® High Yield RNA Transcript Labeling Kit (ENZO) in the presence of biotinylated ribonucleotides form biotin labelled cRNA. The labelled cRNA was then purified on an affinity resin (Rneasy, Qiagen), quantified and fragmented. An amount of approximately 10 μg labelled cRNA was hybridized for approximately 16 hours at 45° C. to an expression probe array. The array was then washed and stained twice with streptavidin-phycoerythrin (Molecular Probes) using the GeneChip Fluidics Workstation 400 (Affymetrix). The array was then scanned twice using a confocal laser scanner (GeneArray Scanner®, Agilent) resulting in one scanned image. This resulting “.dat-file” was processed using the MASS program (Affymetrix) into a “.cel-file”. The “.cel file” was then transferred to tan Affymetrix GeneChip Laboratory Information Management System (LIMS) database, which is connected to a UNIX Sun Solaris server through a network filing system that allows for the average intensities for all probes cells (CEL file) to be downloaded into an Oracle database (NPGN). Raw data was converted to expression levels using a “target intensity” of 100. […] The data were checked for quality and loaded in the GeneSpring® software versions 5.0 (Silicon Genetics, Calif., US) for statistical analysis.
Quality control analysis of transcriptome data: The following quality measures were analysed for each sample: Scaling factor, background, percent present calls, AFFX-GAPDH 3′: AFFX-GAPDH 5′-ratio, AFFX-GAPDH 3′ variance, AFFX-Beta-actin 3′: AFFX-Beta-actin 5′-ratio.

O=C(O)Cc1ccccc1Nc1c(Cl)cccc1Cl [Voltaren]
2.4 fold: C4A (208451_s_at) avg fold change vs control [2]
0.7 fold: FKBP11 (219117_s_at) mRNA expression, Avg fold changes vs control [1]
0.5 fold: HCA127 (220040_x_at) avg fold change vs control [2]
1.2 fold: B2M (216231_s_at) mRNA expression, Avg fold changes vs control [1] | CD48 (204118_at) mRNA expression, Avg fold changes vs control [1] | CDC2 (210559_s_at) mRNA expression, Avg fold changes vs control [1] | HLA-E (200904_at) mRNA expression, Avg fold changes vs control [1] | TMSB10 (217733_s_at) mRNA expression, Avg fold changes vs control [1] | TNFRSF21 (218856_at) mRNA expression, Avg fold changes vs control [1] | TRB@ (213193_x_at) mRNA expression, Avg fold changes vs control [1] | AIF1 (209901_x_at) avg fold change vs control [2] | BTN3A3 (38241_at) avg fold change vs control [2] | C1QA (218232_at) avg fold change vs control [2] | C2 (203052_at) avg fold change vs control [2] | CYBB (203923_s_at) avg fold change vs control [2] | CYP3A5 (214234_s_at) avg fold change vs control [2] | HCK (208018_s_at) avg fold change vs control [2]
1.0 fold: BCL6 (215990_s_at) mRNA expression, Avg fold changes vs control [1] | GP6 (220336_s_at) mRNA expression, Avg fold changes vs control [1] | HLA-A (210514_x_at) mRNA expression, Avg fold changes vs control [1] | ICAM1 (202637_s_at) mRNA expression, Avg fold changes vs control [1] | PRKCBP1 (209048_s_at) mRNA expression, Avg fold changes vs control [1] | PRKCBP1 (209049_s_at) mRNA expression, Avg fold changes vs control [1] | SIGIRR (52940_at) mRNA expression, Avg fold changes vs control [1] | STAT1 (AFFX-HUMISGF3A/M97935_3_at) mRNA expression, Avg fold changes vs control [1] | TCIRG1 (204158_s_at) mRNA expression, Avg fold changes vs control [1] | TRB@ (210915_x_at) mRNA expression, Avg fold changes vs control [1] | 209813_x_at avg fold change vs control [2] | CLU (208791_at) avg fold change vs control [2] | CYBA (203028_s_at) avg fold change vs control [2] | FCGR1A (214511_x_at) avg fold change vs control [2]
1.6 fold: CCL18 (209924_at) avg fold change vs control [2] | CCL19 (210072_at) avg fold change vs control [2] | CX3CR1 (205898_at) avg fold change vs control [2]
9.0 fold: CCL2 (216598_s_at) avg fold change vs control [2]
2.1 fold: CXCL11 (210163_at) avg fold change vs control [2] | G1P2 (205483_s_at) avg fold change vs control [2]
1.7 fold: C1S (208747_s_at) avg fold change vs control [2]
1.1 fold: ACE (209749_s_at) mRNA expression, Avg fold changes vs control [1] | BTN2A2 (205298_s_at) mRNA expression, Avg fold changes vs control [1] | CD2 (205831_at) mRNA expression, Avg fold changes vs control [1] | CYBB (203922_s_at) mRNA expression, Avg fold changes vs control [1] | HCLS1 (202957_at) mRNA expression, Avg fold changes vs control [1] | HEM1 (209734_at) mRNA expression, Avg fold changes vs control [1] | HLA-A (213932_x_at) mRNA expression, Avg fold changes vs control [1] | STAT1 (200887_s_at) mRNA expression, Avg fold changes vs control [1] | STAT3 (208992_s_at) mRNA expression, Avg fold changes vs control [1] | TMPO (209753_s_at) mRNA expression, Avg fold changes vs control [1] | BTN3A1 (207485_x_at) avg fold change vs control [2] | C1QB (202953_at) avg fold change vs control [2] | CD14 (201743_at) avg fold change vs control [2] | DUSP6 (208893_s_at) avg fold change vs control [2] | ECM1 (209365_s_at) avg fold change vs control [2]
0.8 fold: EMP3 (203729_at) mRNA expression, Avg fold changes vs control [1] | FKBP11 (219118_at) mRNA expression, Avg fold changes vs control [1] | HLA-C (211799_x_at) mRNA expression, Avg fold changes vs control [1]
1.8 fold: CCL8 (214038_at) avg fold change vs control [2] | GZMB (210164_at) avg fold change vs control [2]
2.2 fold: CCL5 (1405_i_at) avg fold change vs control [2]
2.0 fold: CXCL11 (211122_s_at) avg fold change vs control [2]
0.6 fold: THY1 (213869_x_at) mRNA expression, Avg fold changes vs control [1]
0.9 fold: FCGRT (218831_s_at) mRNA expression, Avg fold changes vs control [1] | IL13RA1 (210904_s_at) mRNA expression, Avg fold changes vs control [1] | CYP11B1 (214630_at) avg fold change vs control [2] | HFE (210864_x_at) avg fold change vs control [2]
1.3 fold: CCR1 (205098_at) mRNA expression, Avg fold changes vs control [1] | PIK3CD (203879_at) mRNA expression, Avg fold changes vs control [1] | BCL3 (204908_s_at) avg fold change vs control [2] | BTN3A3 (204820_s_at) avg fold change vs control [2] | CASP1 (211367_s_at) avg fold change vs control [2] | CCNB2 (202705_at) avg fold change vs control [2] | CD74 (209619_at) avg fold change vs control [2] | CTSK (202450_s_at) avg fold change vs control [2] | CTSS (202902_s_at) avg fold change vs control [2] | CXCL9 (203915_at) avg fold change vs control [2] | CXCL10 (204533_at) avg fold change vs control [2] | CXCL12 (209687_at) avg fold change vs control [2] | CYP1B1 (202436_s_at) avg fold change vs control [2] | F13A1 (203305_at) avg fold change vs control [2]
1.9 fold: CD3D (213539_at) avg fold change vs control [2]
1.4 fold: CD53 (203416_at) mRNA expression, Avg fold changes vs control [1] | FCGR2A (203561_at) mRNA expression, Avg fold changes vs control [1] | HLA-F (221978_at) mRNA expression, Avg fold changes vs control [1] | PTPN7 (204852_s_at) mRNA expression, Avg fold changes vs control [1] | B2M (201891_s_at) avg fold change vs control [2] | C1R (212067_s_at) avg fold change vs control [2] | CCL3 (205114_s_at) avg fold change vs control [2] | CD8A (205758_at) avg fold change vs control [2] | CMAH (210571_s_at) avg fold change vs control [2] | CTSC (201487_at) avg fold change vs control [2] | ECGF1 (204858_s_at) avg fold change vs control [2]
1.5 fold: FCER1G (204232_at) mRNA expression, Avg fold changes vs control [1] | AIF1 (213095_x_at) avg fold change vs control [2] | BTN3A3 (204821_at) avg fold change vs control [2] | CASP1 (209970_x_at) avg fold change vs control [2] | F2RL1 (206429_at) avg fold change vs control [2] | FCGR3A (204006_s_at) avg fold change vs control [2]

From patent US9738932B2, “Biomarkers for cardiovascular side-effects induced by cox-2 inhibitory compounds” (FIRALIS SAS, priority 2005, dated 2017)
